{"source": "patent US20160114000A1", "about": "(Merck Sharp & Dohme, published 2016)", "key": {"[1]": {"tested_on": "DIO mice (strain C57Bl6/NTac)", "experiment": "Cumulative food intake in DIO mice, Example 20", "type": "in vivo", "conditions": "3 nmol/kg, after 8 days of dosing, vs vehicle", "excerpt": "For the studies in Examples 18, 19, 20, and 21, diet induced obesity (DIO) mice (strain C57Bl6/NTac; 20 weeks on a high fat diet, about 47 g) were divided into groups of eight mice per group and the initial average body weight, food intake and basal glucose of each group were matched before peptide administration. Each group of mice was subcutaneously injected daily with a dose of Co-agonist Peptide or vehicle control for 7 to 10 days. The peptides tested in this study were Co-agonist Peptides 1, 2, 3, 4, 5, and 6 (SEQ ID NOs: 6, 7, 8, 9, 10, and 11, respectively) at the doses that varied from 3 nmol/kg to 25 nmol/kg. Body weight, food intake and basal glucose were measured periodically during treatment."}, "[2]": {"tested_on": "DIO mice (strain C57Bl6/NTac)", "experiment": "Body weight change (%) relative to vehicle in DIO mice, second study, Example 19", "type": "in vivo", "conditions": "3 nmol/kg daily, eight days", "procedure": "In addition, the peptide of SEQ ID NO: 8 was administered at 15 nmol/kg, while the peptide of SEQ ID NOs: 10 and 11 were administered at 3 nmol/kg. Body weight was measured daily for eight days and body weight change is expressed as percent relative to vehicle (FIG. 2)."}, "[3]": {"tested_on": "diet-induced obese (DIO) mice (strain C57Bl6/NTac)", "experiment": "Cumulative body weight change (grams) in DIO mice, Example 18", "type": "in vivo", "conditions": "9 nmol/kg daily, day 9", "procedure": "Mice were administered a vehicle control or a dose of a peptide daily for nine days. […] The peptide of SEQ ID NO: 9 was administered at doses of 9 and 25 nmol/kg. Cumulative body weight change (grams) was measured each day of the study except on day 3. Results are shown in FIG. 1 and are expressed as mean±SEM."}, "human GCGR": {"target": "T1, human GCGR (Homo sapiens, UniProt P47871)", "T1 construct": "expressed in transfected cells; grown under Geneticin and Hygromycin selection", "T1 sequence (P47871 26-477)": "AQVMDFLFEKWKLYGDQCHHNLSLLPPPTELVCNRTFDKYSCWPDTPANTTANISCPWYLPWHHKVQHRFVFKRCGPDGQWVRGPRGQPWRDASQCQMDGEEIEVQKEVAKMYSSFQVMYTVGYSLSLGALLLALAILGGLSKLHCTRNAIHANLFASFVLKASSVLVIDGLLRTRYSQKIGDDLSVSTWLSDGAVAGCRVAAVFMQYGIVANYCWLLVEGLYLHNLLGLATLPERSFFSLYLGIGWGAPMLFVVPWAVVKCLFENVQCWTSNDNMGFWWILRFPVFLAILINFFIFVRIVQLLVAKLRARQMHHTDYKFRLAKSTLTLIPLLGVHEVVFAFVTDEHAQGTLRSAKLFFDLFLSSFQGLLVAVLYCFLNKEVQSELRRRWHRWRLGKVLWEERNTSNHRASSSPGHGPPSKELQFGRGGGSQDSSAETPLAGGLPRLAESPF", "experiment": "cAMP protocol, cells expressing human GCGR", "type": "cell-based", "conditions": "ratio of EC50 at human GCGR to EC50 at human GLP1R", "description": "The cAMP protocol was as follows.\nPeptides were dissolved in 100% DMSO and serially diluted to generate 11 point titrations. The peptide solutions were then transferred into 384-well assay plates (150 nL/well). Assay ready frozen cells expressing human GLP-1R or human GCGR were suspended in growth media consisting of DMEM/F12 medium (GIBCO), 10% FBS (GIBCO), lx P/S (GIBCO), 800 μg/mL Geneticin (GIBCO), and 300 μg/mL Hygromycin (Invitrogen). Cells were then diluted in assay buffer consisting of PBS (GIBCO), 7.5% BSA (Perkin Elmer), 100 μM RO 20-1724 (Sigma), and 20% human serum (MP Biomedical). The cell suspensions (15 μL) were then added to the assay plates containing the peptide solutions (30,000 cells/well for human GCGR; 20,000 cells/well for GLP1R). The cells were incubated for 1 hour at room temperature in the dark. Production of cAMP was determined using HitHunter™ cAMPXS kits (DiscoverX). ED buffer (20 μL) was then added to each well and the plates were incubated for 1 hour at room temperature in the dark. Subsequently, EA buffer (20 μL) was added to each well, and the plates were incubated for 1-18 hours at room temperature in the dark. Luminescence was measured using an EnVision Multilabel plate reader (Perkin Elmer). EC50 values were calculated using ADA data analyzer software."}}, "data": [{"smiles": "CCCCCCCCCCCCCCCC(=O)N[C@@H](CCC(=O)N[C@@H](CCC(=O)NCCCC[C@H](NC(=O)[C@H](CC(=O)O)NC(=O)[C@H](CO)NC(=O)[C@@H](NC(=O)[C@H](Cc1ccccc1)NC(=O)[C@@H](NC(=O)CNC(=O)[C@H](CCC(N)=O)NC(=O)[C@@H](CO)NC(=O)[C@@H](N)Cc1c[nH]cn1)[C@@H](C)O)[C@@H](C)O)C(=O)N[C@@H](CO)C(=O)N[C@@H](CCCCN)C(=O)N[C@@H](Cc1ccc(O)cc1)C(=O)N[C@@H](CC(C)C)C(=O)N[C@@H](CC(=O)O)C(=O)N[C@@H](CCC(=O)O)C(=O)N[C@@H](CCCNC(=N)N)C(=O)N[C@@H](C)C(=O)N[C@@H](C)C(=O)N[C@@H](CCC(N)=O)C(=O)N[C@@H](CC(=O)O)C(=O)N[C@@H](Cc1ccccc1)C(=O)N[C@H](C(=O)N[C@@H](CCC(N)=O)C(=O)N[C@@H](Cc1c[nH]c2ccccc12)C(=O)N[C@@H](CC(C)C)C(=O)N[C@@H](CC(C)C)C(=O)N[C@@H](CC(=O)O)C(=O)N[C@H](C(N)=O)[C@@H](C)O)C(C)C)C(=O)O)C(=O)O", "note": "[SEQ ID NO: 11, reference compound]", "values": [{"measurement": "food intake", "setting": "[1]", "result": "no change in food intake"}, {"measurement": "weight loss, percent relative to vehicle", "setting": "[2]", "result": "no weight loss efficacy"}, {"measurement": "weight loss", "setting": "[3]", "result": "approximately 13 grams"}, {"measurement": "hGCGR/hGLP1R (hTone)", "setting": "human GCGR", "result": 1.30}]}]}
